Measured values published in US9248199B2, “1:1 adducts of sickle hemoglobin” (Global Blood Therapeutics, Inc., priority 2014, dated 2016).

- melting point: 179 to 182 °C
SMILES: CCn1nccc1N(C(=O)COc1cccc(O)c1C=O)C(C)C [compound 22, N-(1-ethyl-1H-pyrazol-5-yl)-2-(2-formyl-3-hydroxyphenoxy)-N-isopropylacetamide]
